The record followed here is patent publication US12662451B2, “Chemical compounds and uses thereof” (GLAXOSMITHKLINE INTELLECTUAL PROPERTY (NO.4) LIMITED, priority 2023, dated 2026).

The test deals with T1, recombinant full-length WRN protein (1-1432) (Homo sapiens, UniProt Q14191).
T1 construct: recombinant full-length WRN protein (1-1432)
Description: WRN unwinding activity, fluorogenic 384-well assay (Example A). The conditions noted are these: WRN unwinding activity, 4 hr; Table 2; read-out: 4 hr UNW pIC50 (converted). It counts as biochemical. The procedure, abridged:
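200 pM enzyme (2× stock) preincubated with compound 4 h at ambient temperature, then 200 μM ATP and 12 nM quenched TAMRA-labelled dsDNA (2× stocks) added for 60 min; EDTA-quenched. Buffer 25 mM Tris pH 8.0, 5 mM NaCl, 2 mM MgCl2. Fluorescence at 525/598 nm; pIC50 from four-parameter fit.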

Counter-ions that a name gives are not always drawn.

T1 sequence (Q14191 whole entry): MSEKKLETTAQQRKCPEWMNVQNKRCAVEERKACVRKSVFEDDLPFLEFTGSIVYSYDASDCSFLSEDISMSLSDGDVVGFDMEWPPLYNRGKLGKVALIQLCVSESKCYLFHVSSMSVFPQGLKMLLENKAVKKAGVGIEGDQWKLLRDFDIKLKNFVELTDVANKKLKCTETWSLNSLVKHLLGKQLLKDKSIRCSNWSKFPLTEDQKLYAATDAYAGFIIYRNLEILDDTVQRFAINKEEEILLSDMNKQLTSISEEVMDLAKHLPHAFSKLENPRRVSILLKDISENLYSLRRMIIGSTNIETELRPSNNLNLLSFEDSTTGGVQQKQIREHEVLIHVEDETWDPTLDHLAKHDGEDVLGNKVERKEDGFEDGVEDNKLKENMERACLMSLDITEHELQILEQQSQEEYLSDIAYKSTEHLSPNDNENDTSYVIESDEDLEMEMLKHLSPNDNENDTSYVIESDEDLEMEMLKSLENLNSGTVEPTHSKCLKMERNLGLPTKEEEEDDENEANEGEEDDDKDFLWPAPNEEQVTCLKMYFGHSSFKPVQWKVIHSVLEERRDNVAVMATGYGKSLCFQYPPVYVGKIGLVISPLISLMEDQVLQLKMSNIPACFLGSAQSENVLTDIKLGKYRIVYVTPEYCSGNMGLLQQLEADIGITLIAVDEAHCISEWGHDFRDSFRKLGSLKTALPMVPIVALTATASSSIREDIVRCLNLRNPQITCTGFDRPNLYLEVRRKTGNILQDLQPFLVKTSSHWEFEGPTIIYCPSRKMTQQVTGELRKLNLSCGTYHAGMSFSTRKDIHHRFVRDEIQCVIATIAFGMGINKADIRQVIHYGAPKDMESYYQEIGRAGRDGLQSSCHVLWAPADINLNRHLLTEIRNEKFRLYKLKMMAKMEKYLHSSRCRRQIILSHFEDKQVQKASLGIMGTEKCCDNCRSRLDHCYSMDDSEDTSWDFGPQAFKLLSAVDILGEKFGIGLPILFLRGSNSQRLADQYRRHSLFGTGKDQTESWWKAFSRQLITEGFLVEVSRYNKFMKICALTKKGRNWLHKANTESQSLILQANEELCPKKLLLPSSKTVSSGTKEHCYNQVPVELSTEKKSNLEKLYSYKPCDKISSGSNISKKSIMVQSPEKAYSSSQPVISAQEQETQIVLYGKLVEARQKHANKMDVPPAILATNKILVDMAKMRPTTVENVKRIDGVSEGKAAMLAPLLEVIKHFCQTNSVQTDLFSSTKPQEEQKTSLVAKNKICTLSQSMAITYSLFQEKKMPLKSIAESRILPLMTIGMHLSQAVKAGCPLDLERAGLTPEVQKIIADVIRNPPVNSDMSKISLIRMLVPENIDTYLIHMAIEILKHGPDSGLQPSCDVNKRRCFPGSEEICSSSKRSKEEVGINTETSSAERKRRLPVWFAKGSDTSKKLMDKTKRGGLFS

`COc1cscc1-c1ccc([C@H]2CCC[C@@H](C(=O)Nc3ccc(C(F)(F)F)cc3F)[C@@H]2C(=O)O)cc1` [Example 42, (1R,2R,6S)-2-((2-fluoro-4-(trifluoromethyl)phenyl)carbamoyl)-6-(4-(4-methoxythiophen-3-yl)phenyl) cyclohexane-1-carboxylic acid]: the IC50 was 1000 nM.

Regarding `Cc1cscc1-c1ccc([C@H]2CCC[C@@H](C(=O)Nc3ccc(C(F)(F)F)cc3F)[C@@H]2C(=O)O)cc1` [Example 43, (1R,2R,6S)-2-((2-fluoro-4-(trifluoromethyl)phenyl)carbamoyl)-6-(4-(4-methylthiophen-3-yl)phenyl)cyclohexane-1-carboxylic acid], the IC50 is 10 nM.

For `O=C(O)[C@@H]1[C@@H](c2ccc(-c3ccnc4ccsc34)cc2)CCC[C@H]1C(=O)Nc1ccc(C(F)(F)F)cc1F` [Example 44, (1R,2R,6S)-2-((2-fluoro-4-(trifluoromethyl)phenyl)carbamoyl)-6-(4-(thieno[3,2-b]pyridin-7-yl)phenyl)cyclohexane-1-carboxylic acid], the IC50 is 6310 nM.

For the molecule `O=C(O)[C@@H]1[C@@H](c2ccc(-c3nncc4ccoc34)cc2)CCC[C@H]1C(=O)Nc1ccc(C(F)(F)F)cc1F` [Example 45, (1R,2R,6S)-2-((2-fluoro-4-(trifluoromethyl)phenyl)carbamoyl)-6-(4-(furo[2,3-d]pyridazin-7-yl)phenyl)cyclohexane-1-carboxylic acid], the IC50 was 126 nM.

As for `Cc1sccc1-c1ccc([C@H]2CCC[C@@H](C(=O)Nc3ccc(C(F)(F)F)cc3F)[C@@H]2C(=O)O)cc1` [Example 46, (1R,2R,6S)-2-((2-fluoro-4-(trifluoromethyl)phenyl)carbamoyl)-6-(4-(2-methylthiophen-3-yl)phenyl)cyclohexane-1-carboxylic acid], the IC50 is 31.6 nM.

With `Cc1cc(-c2ccc([C@H]3CCC[C@@H](C(=O)Nc4ccc(C(F)(F)F)cc4F)[C@@H]3C(=O)O)cc2)cs1` [Example 47, (1R,2R,6S)-2-((2-fluoro-4-(trifluoromethyl)phenyl)carbamoyl)-6-(4-(5-methylthiophen-3-yl)phenyl)cyclohexane-1-carboxylic acid], the IC50 is 10 nM.

As for `O=C(O)[C@@H]1[C@@H](c2ccc(-c3csnc3CO)cc2)CCC[C@H]1C(=O)Nc1ccc(C(F)(F)F)cc1F` [Example 50, (1R,2R,6S)-2-((2-fluoro-4-(trifluoromethyl)phenyl)carbamoyl)-6-(4-(3-(hydroxymethyl)isothiazol-4-yl)phenyl)cyclohexane-1-carboxylic acid], the IC50 was 7.94 nM.

Regarding `O=C(O)[C@@H]1[C@@H](c2ccc(-c3cnsc3CO)cc2)CCC[C@H]1C(=O)Nc1ccc(C(F)(F)F)cc1F` [Example 51, (1R,2R,6S)-2-((2-fluoro-4-(trifluoromethyl)phenyl)carbamoyl)-6-(4-(5-(hydroxymethyl)isothiazol-4-yl)phenyl) cyclohexane-1-carboxylic acid], the IC50 is 10 nM.

As for `O=C(O)[C@@H]1[C@@H](c2ccc(-c3ncsc3CO)cc2)CCC[C@H]1C(=O)Nc1ccc(C(F)(F)F)cc1F` [Example 52, (1R,2R,6S)-2-((2-fluoro-4-(trifluoromethyl)phenyl)carbamoyl)-6-(4-(5-(hydroxymethyl)thiazol-4-yl)phenyl)cyclohexane-1-carboxylic acid], the IC50 is 794 nM.

Turning to `O=C(O)[C@@H]1[C@@H](c2ccc(C3=COCCC3)cc2)CCC[C@H]1C(=O)Nc1ccc(C(F)(F)F)cc1F` [Example 56, (1R,2S,6R)—2-(4-(3,4-dihydro-2H-pyran-5-yl)phenyl)-6-((2-fluoro-4-(trifluoromethyl)phenyl)carbamoyl)cyclohexane-1-carboxylic acid], the IC50 is 1.58 nM.

For `O=C(O)[C@@H]1[C@@H](c2ccc(C3=CCOC3)cc2)CCC[C@H]1C(=O)Nc1ccc(C(F)(F)F)cc1F` [Example 57, (1R,2S,6R)-2-(4-(2,5-dihydrofuran-3-yl)phenyl)-6-((2-fluoro-4-(trifluoromethyl)phenyl)carbamoyl) cyclohexane-1-carboxylic acid], the IC50 is 100 nM.

Turning to `O=C(O)[C@@H]1[C@@H](c2ccc(CCN3CCNC3=O)cc2)CCC[C@H]1C(=O)Nc1ccc(C(F)(F)F)cc1F` [Example 60, (1R,2R,6S)-2-((2-fluoro-4-(trifluoromethyl)phenyl)carbamoyl)-6-(4-(2-(2-oxoimidazolidin-1-yl)ethyl)phenyl)cyclohexane-1-carboxylic acid], the IC50 is 2510 nM.

As to `O=C(O)[C@@H]1[C@@H](c2ccc(C3CCCCC3)cc2)CCC[C@H]1C(=O)Nc1ccc(C(F)(F)F)cc1F` [Example 62, (1R,2S,6R)-2-(4-cyclohexylphenyl)-6-((2-fluoro-4-(trifluoromethyl)phenyl)carbamoyl)cyclohexane-1-carboxylic acid], the IC50 was 126 nM.

In the case of `O=C(O)[C@@H]1[C@@H](c2ccc(C3COC3)cc2)CCC[C@H]1C(=O)Nc1ccc(C(F)(F)F)cc1F` [Example 63, (1R,2R,6S)-2-((2-fluoro-4-(trifluoromethyl)phenyl)carbamoyl)-6-(4-(oxetan-3-yl)phenyl)cyclohexane-1-carboxylic acid], the IC50 is 1580 nM.

For the molecule `O=C(O)[C@@H]1[C@@H](c2ccc(CC3(CO)COC3)cc2)CCC[C@H]1C(=O)Nc1ccc(C(F)(F)F)cc1F` [Example 68, (1R,2R,6S)-2-((2-fluoro-4-(trifluoromethyl)phenyl)carbamoyl)-6-(4-((3-(hydroxymethyl)oxetan-3-yl)methyl)phenyl)cyclohexane-1-carboxylic acid], the IC50 is 1580 nM.

Regarding `O=C(O)[C@@H]1[C@@H](c2ccc(C3CC3)cc2)CCC[C@H]1C(=O)Nc1ccc(C(F)(F)F)cc1F` [Example 69, (1R,2S,6R)-2-(4-cyclopropylphenyl)-6-((2-fluoro-4-(trifluoromethyl)phenyl)carbamoyl)cyclohexane-1-carboxylic acid], the IC50 was 6310 nM.

As for `O=C(O)[C@@H]1[C@@H](c2ccc(CC3CCNCC3)cc2)CCC[C@H]1C(=O)Nc1ccc(C(F)(F)F)cc1F` [Example 71, (1R,2R,6S)-2-((2-fluoro-4-(trifluoromethyl)phenyl)carbamoyl)-6-(4-(piperidin-4-ylmethyl)phenyl)cyclohexane-1-carboxylic acid], the IC50 was 100000 nM.

Take `CN(c1ccc([C@H]2CCC[C@@H](C(=O)Nc3ccc(C(F)(F)F)cc3F)[C@@H]2C(=O)O)cc1)S(=O)(=O)c1nnc[nH]1` [Example 96, (1R,2R,6S)-2-((2-fluoro-4-(trifluoromethyl)phenyl)carbamoyl)-6-(4-(N-methyl-4H-1,2,4-triazole-3-sulfonamido)phenyl)cyclohexane-1-carboxylic acid]: the IC50 was 0.501 nM.

On to `CN(c1ccc([C@H]2CCC[C@@H](C(=O)Nc3ccc(C(F)(F)F)cc3F)[C@@H]2C(=O)O)cc1)S(=O)(=O)c1cccc(-c2nnco2)c1` [Example 105, (1R,2R,6S)-2-((2-fluoro-4-(trifluoromethyl)phenyl)carbamoyl)-6-(4-((N-methyl-3-(1,3,4-oxadiazol-2-yl)phenyl)sulfonamido)phenyl)cyclohexane-1-carboxylic acid], for which the IC50 was 1.58 nM.

Regarding `Cc1nc2cc(S(=O)(=O)N(C)c3ccc([C@H]4CCC[C@@H](C(=O)N[C@H]5CC[C@H](C(C)(C)O)CC5)[C@@H]4C(=O)O)cc3)ccc2n1C` [Example 183, (1R,2R,6S)-2-(((1r,4R)-4-(2-hydroxypropan-2-yl)cyclohexyl)carbamoyl)-6-(4-((N,1,2-trimethyl-1H-benzo[d]imidazole)-5-sulfonamido)phenyl)cyclohexane-1-carboxylic acid], the IC50 was 6.31 nM.

As to `Cc1nc2cc(S(=O)(=O)N(C)c3ccc([C@H]4CCC[C@@H](C(=O)NC5CCC6(CCCC6)CC5)[C@@H]4C(=O)O)cc3)ccc2n1C` [Example 184, (1R,2R,6S)-2-(spiro[4.5]decan-8-ylcarbamoyl)-6-(4-((N,1,2-trimethyl-1H-benzo[d]imidazole)-5-sulfonamido)phenyl)cyclohexane-1-carboxylic acid, formic acid salt], the IC50 was 631 nM.

Take `Cc1nc2cc(S(=O)(=O)N(C)c3ccc([C@H]4CCC[C@@H](C(=O)NC56CC(C(F)(F)F)(C5)C6)[C@@H]4C(=O)O)cc3)ccc2n1C` [Example 185, (1R,2R,6S)-2-((3-(trifluoromethyl)bicyclo[1.1.1]pentan-1-yl)carbamoyl)-6-(4-((N,1,2-trimethyl-1H-benzo[d]imidazole)-5-sulfonamido)phenyl)cyclohexane-1-carboxylic acid, formic acid salt]: the IC50 was 63.1 nM.

Consider `Cc1nc2cc(S(=O)(=O)N(C)c3ccc([C@H]4CCC[C@@H](C(=O)NC56CC(C(F)F)(C5)C6)[C@@H]4C(=O)O)cc3)ccc2n1C` [Example 186, (1R,2R,6S)-2-((3-(difluoromethyl)bicyclo[1.1.1]pentan-1-yl)carbamoyl)-6-(4-((N,1,2-trimethyl-1H-benzo[d]imidazole)-5-sulfonamido)phenyl)cyclohexane-1-carboxylic acid, formic acid salt], for which the IC50 is 3160 nM.

As to `Cc1nc2cc(S(=O)(=O)N(C)c3ccc([C@H]4CCC[C@@H](C(=O)N[C@H]5CC[C@@H](C6CCC6)CC5)[C@@H]4C(=O)O)cc3)ccc2n1C` [Example 189, (1R,2R,6S)-2-(((1s,4S)-4-cyclobutylcyclohexyl)carbamoyl)-6-(4-((N,1,2-trimethyl-1H-benzo[d]imidazole)-5-sulfonamido)phenyl)cyclohexane-1-carboxylic acid], the IC50 was 398 nM.

With `Cc1nc2cc(S(=O)(=O)N(C)c3ccc([C@H]4CCC[C@@H](C(=O)N[C@@H]5C[C@@H]6CC(F)(F)C[C@@H]6C5)[C@@H]4C(=O)O)cc3)ccc2n1C` [Example 191, (1R,2R,6S)-2-(((2s,3aR,6aS)-5,5-difluorooctahydropentalen-2-yl)carbamoyl)-6-(4-((N,1,2-trimethyl-1H-benzo[d]imidazole)-5-sulfonamido)phenyl)cyclohexane-1-carboxylic acid], the IC50 was 398 nM.
